Laboratory results reported in patent publication US20200345055A1, “ACTIVATION OF CONDITIONALLY-EXPRESSED OLIGOSACCHARIDE PATHWAYS DURING FERMENTATION OF PROBIOTIC STRAINS” (EVOLVE BIOSYSTEMS, INC., priority 2018, published 2020).
Entries after “also recorded” stand apart in the source; their conditions may differ.

How the values were obtained:
[1] = test system: Blon_0881 (glucosamine-6-phosphate isomerase); experiment: qRT-PCR gene expression in B. infantis EVC001, relative to Blon_0393, 2^-ΔΔCt; type: cell-based, Bifidobacterium longum subsp. infantis EVC001; details: 10 g/L activator + 10 g/L glucose, 16 hours; control 20 g/L glucose = 1
Experimental: (§1) In some embodiments, gene activation relates to Blon_0881 and Blon_2343 and their expression is greater than 1; that is, when the delta delta cycle threshold (2^−ΔΔ^Ct) is greater than 1, 2^−ΔΔ^Ct is calculated using Blon_0393, or another constitutively expressed gene as a reference. The result (activation) is the fold change (2^−ΔΔ^Ct>1) of gene expression, determined based on the 2^−ΔΔ^Ct method. (Livak K and Schmittgen T. (2001). Analysis of relative gene expression data using qRT-PCR and the 2^−ΔΔ^Ct Method. Methods: 25: 402-8). In other embodiments, other genes from Table 1 are used in addition to Blon_0881 and Blon_2343.
(§2) B. infantis EVC001 (Bifidobacterium longum subsp. infantis EVC001 deposited under ATCC Accession No. PTA-125180) was grown under 3 different experimental conditions for 16 hours. The carbon source was added to the initial culture media in the following amounts: 1) 20 g/L glucose; 2) 10 g/L N-acetyl-lactosamine and 10 g/L glucose; and 3) 10 g/L NAG and 10 g/L glucose. The cells were harvested and RNA was extracted to look specifically at gene expression of Blon_0881 and Blon_2343 by qRT-PCR relative to Blon_0393 and expressed as 2^−ΔΔ^Ct. Activation is determined by comparing against the control (glucose). A result greater than 1 is considered activated N-acetyl-lactosamine is an activator of B. infantis EVC001.

[2] = test system: Blon_2343 (carbohydrate ABC transporter inner membrane protein); experiment: as above; type: cell-based, Bifidobacterium longum subsp. infantis EVC001; details: 10 g/L activator + 10 g/L glucose, 16 hours; control 20 g/L glucose = 1
Experimental: as §1, §2

B. infantis EVC001 = experiment: Activation of B. infantis EVC001 judged from Blon_0881 and Blon_2343 expression against glucose control; type: cell-based, Bifidobacterium longum subsp. infantis EVC001; details: 10 g/L activator + 10 g/L glucose, 16 hours
Experimental: as §1, §2

[3] = test system: fucosidase activity in B. infantis; experiment: Fucosidase activity of dried B. infantis final product (colorimetric nitrophenol release, absorbance at 450 nm); type: cell-based, Bifidobacterium infantis
Experimental: FIG. 1. A comparison of fucosidase activity between a final product of B. infantis grown on N-acetylglucosamine (NAG) and a final product of B. infantis grown on glucose/lactose. B. infantis grown on 2.5% w/v NAG is compared to B. infantis grown on glucose/lactose. The absorbance due to the colorometric change resulting from fucosidase activity in the supernatant is measured using a spectrophotometer at 450 nm. […] A fermentation media was made that contained NAG as 100% of the carbon source. This represented 2% of the total media composition (wt/vol). The media also contained sources of nitrogen, minerals, reducing agents and was autoclaved prior to addition of a B. infantis inoculum. The fermentation was carried out under anaerobic conditions for up to 72 hours, until the fermentation reached the stationary phase. The cells were separated from the spent media and concentrated. A cryoprotectant was mixed with the cells to stabilize before freeze-drying. Once dried, the formulation was analyzed for fucosidase activity compared to a dried formulation that had been grown on glucose/lactose. […] The colorimetric difference was confirmed using a spectrophotometer (FIG. 1).

[4] = test system: Blon_2343 and Blon_0881 in B. infantis; experiment: qRT-PCR of Blon_2343 and Blon_0881 in B. infantis grown on NAG/glucose, normalized to Blon_0393; type: cell-based; details: all tested concentrations of NAG (5-20 g/L with glucose to 20 g/L), harvested after 6 or 12 hours; FIG. 2
Experimental: FIG. 2. Average relative fold change in gene expression of the genes Blon_2343 and Blon_0881 in B. infantis coding a carbohydrate ABC transporter inner membrane protein and a glucosamine-6-phosphate isomerase or NagB, respectively. Different concentrations of N-acetylglucosamine (NAG) were added to the culture media used to ferment B. infantis. The cells were harvested after 6 hours (A) or 12 hours of growth (B) and RNA was isolated for quantitative reverse transcription PCR (qRT-PCR). Activation was assessed using specific primers for Blon_2343 and Blon_0881 and normalized to a housekeeping gene (Blon_0393). The dashed horizontal line represents no change in expression. […] Cells grown in glucose alone (0 g/L NAG) show no activation.
In some embodiments, gene activation relates to Blon_0881 and Blon_2343 and their expression is greater than 1; that is, when the delta delta cycle threshold (2^−ΔΔ^Ct) is greater than 1, 2^−ΔΔ^Ct is calculated using Blon_0393, or another constitutively expressed gene as a reference. The result (activation) is the fold change (2^−ΔΔ^Ct>1) of gene expression, determined based on the 2^−ΔΔ^Ct method. […]
A series of fermentations were conducted where B. infantis was grown on various concentrations of NAG and glucose shown in Table 5. The cells were grown for a determined period of time (i.e 6 and 12 hours) and spun down. […]

[5] = test system: N-acetylglucosamine-6-phosphate deacetylase gene in L. plantarum; experiment: qRT-PCR of N-acetylglucosamine-6-phosphate deacetylase in Lactobacillus plantarum, normalized to rpoB; type: cell-based; details: for activation of L. plantarum (fold change of N-acetylglucosamine-6-phosphate deacetylase expression): FIG. 3
Text: FIG. 3. Average relative fold change in the expression of the genes coding for N-acetylglucosamine-6-phosphate deacetylase under different concentrations of N-acetylglucosamine (NAG) added to the culture media for Lactobacillus plantarum. Culture media with different concentrations of NAG (3, 12.5 and 20 g/L) were used to ferment Lactobacillus plantarum. The cells were harvested and RNA was isolated for qRT-PCR. Using specific primers for N-acetylglucosamine-6-phosphate deacetylase, activation was assessed using normalization to a housekeeping gene (rpoB) found in L. plantarum. […] Three different fermentation media compositions were made that contained: 1) 100% NAG (25 g/L); 2) 50% NAG (12.5 g/L) with 50% Lactose (12.5 g/L); and 3) 12.5% NAG (3 g/L) with 87.5% lactose (22 g/L). This represented about 2% of the total media composition (wt/vol). The media also contained sources of nitrogen, minerals, reducing agents and was autoclaved prior to addition of L. plantarum inoculum. The fermentation was carried out under anaerobic conditions for 24 hours until the cells reached the stationary phase. The cells were harvested and RNA extracted (Sambrook, Joseph. & Russell, David W. & Cold Spring Harbor Laboratory. (2012). Molecular cloning: a laboratory manual. Cold Spring Harbor, N.Y: Cold Spring Harbor Laboratory). Specific primers for Lactobacillus were used for the following gene N-acetylglucosamine-6-phosphate deacetylase (activation gene) using normalization to a housekeeping gene (rpoB) found in L. plantarum.

SMILES	Mean 2^-ΔΔCt BLON_0881 [1]	Mean 2^-ΔΔCt BLON_2343 [2]	Interpretation (activation; result greater than 1 is considered activated) (B. infantis EVC001)	fucosidase activity (absorbance at 450 nm) ([3]; B. infantis final product grown on 2.5% w/v NAG, compared to cells grown on glucose/lactose, FIG. 1)	release of nitrophenol from aryl-substituted glycoside via fucosidases ([3]; dried B. infantis grown on NAG as 100% of carbon source, 2% wt/vol of media, up to 72 hours, compared to glucose/lactose)	relative fold change in gene expression of Blon_2343 and Blon_0881 (2^ΔΔCt), activation [4]	activation of L. plantarum (fold change of N-acetylglucosamine-6-phosphate deacetylase expression) ([5]; 3 g/L NAG (12.5%) with 22 g/L lactose, 24 hours)	activation of L. plantarum (fold change of N-acetylglucosamine-6-phosphate deacetylase expression) ([5]; 12.5 g/L NAG (50%) with 12.5 g/L lactose, 24 hours)	activation of L. plantarum (fold change of N-acetylglucosamine-6-phosphate deacetylase expression) ([5]; 20 g/L NAG in culture media)	activation of L. plantarum (N-acetylglucosamine-6-phosphate deacetylase expression) ([5]; 100% NAG (25 g/L) as carbon source, 24 hours)
CC(=O)N[C@H]1C(O)O[C@H](CO)[C@@H](O[C@@H]2O[C@H](CO)[C@H](O)[C@H](O)[C@H]2O)[C@@H]1O (stereo partly shown) [N-acetyl-lactosamine]	10.50	6.94	activator; also recorded: Activated	–	–	–	–	–	–	–
CC(=O)N[C@H]1C(O)O[C@H](CO)[C@@H](O)[C@@H]1O (stereo partly shown) [NAG, N-acetylglucosamine]	3.41	2.10	Activated	had fucosidase activity	release nitrophenol	> 1	did not	activated; also recorded: activation	activated	activation
